Test results as given in ChEMBL document CHEMBL1125407, “Noncataleptogenic, centrally acting dopamine D-2 and serotonin 5-HT2 antagonists within a series of 3-substituted 1-(4-fluorophenyl)-1H-indoles” (J Med Chem, 1992).

How the values were obtained:
Rattus norvegicus [1] = species: Rattus norvegicus; test: Inhibition of quipazine induced head twitches in rats; format: functional
[2] = target: D(2) dopamine receptor (Mus musculus) (UniProt P61168); test: Tested in vivo for methyl phenidate-induced gnawing behavior antagonistic activity against dopamine D2 receptor in mice; format: functional, organism-based
D(2) dopamine receptor = D(2) dopamine receptor (Rattus norvegicus, UniProt P61169); test: Tested for the inhibition of [3H]spiperone binding to dopamine D2 receptor
[3] = target: T1, Serotonin 2 (5-HT2) receptor (Rattus norvegicus, UniProt P30994+P08909+P14842); test: Inhibition of [3H]ketanserin binding to rat 5-hydroxytryptamine 2 receptors.; format: protein assay
[4] = target: D(2) dopamine receptor (Rattus norvegicus) (UniProt P61169); test: Tested in vivo for induction of catalepsy against D2 receptor in rats; format: functional, organism-based
[5] = target: T1, Serotonin 2 (5-HT2) receptor; test: Inhibition of [3H]ketanserin binding to […] 5-hydroxytryptamine 2 receptor; format: protein assay
[6] = target: D(2) dopamine receptor (Rattus norvegicus) (UniProt P61169); test: (§1) Compound was tested in vivo for methyl phenidate-induced gnawing behavior antagonistic activity against dopamine D-2 receptor in mice; format: functional, organism-based
Rattus norvegicus [7] = test: Compound was tested for the inhibition of quipazine-induced head twitches 24 hours after subcutaneous administration; format: functional; settings: sc
[8] = target: D(2) dopamine receptor (Rattus norvegicus) (UniProt P61169); test: Compound was tested in vivo for induction of catalepsy against D-2 receptor in rats; format: organism-based
[9] = target: D(2) dopamine receptor (Mus musculus) (UniProt P61168); test: as §1; format: functional, organism-based
[10] = target: T2, Serotonin 2 (5-HT2) receptor (Rattus norvegicus) (UniProt P30994+P08909+P14842); test: Compound was tested for the inhibition of quipazine binding at 5-hydroxytryptamine 2 receptor; format: protein assay
[11] = target: T2, Serotonin 2 (5-HT2) receptor (Rattus norvegicus); test: Compound was tested for the inhibition of quipazine binding at 5-HT2 receptor; format: protein assay

D(2) dopamine receptor (Mus musculus), sequence (P61168 whole entry): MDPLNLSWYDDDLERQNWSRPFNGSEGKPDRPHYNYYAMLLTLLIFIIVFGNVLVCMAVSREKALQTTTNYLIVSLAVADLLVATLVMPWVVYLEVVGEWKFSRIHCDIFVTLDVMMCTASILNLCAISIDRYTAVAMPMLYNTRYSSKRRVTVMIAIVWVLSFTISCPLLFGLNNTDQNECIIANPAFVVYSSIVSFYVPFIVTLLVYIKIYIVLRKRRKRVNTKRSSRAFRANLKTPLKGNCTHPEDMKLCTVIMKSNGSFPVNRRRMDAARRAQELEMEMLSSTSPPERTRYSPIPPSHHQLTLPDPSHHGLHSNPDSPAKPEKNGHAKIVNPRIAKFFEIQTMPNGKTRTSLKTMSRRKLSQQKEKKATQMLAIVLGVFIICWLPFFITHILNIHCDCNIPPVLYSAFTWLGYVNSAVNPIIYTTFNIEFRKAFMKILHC
D(2) dopamine receptor, sequence (P61169 whole entry): as the sequence (P61168 whole entry) above, with P29A counted along it
D(2) dopamine receptor (Rattus norvegicus), sequence (P61169 whole entry): as the sequence (P61168 whole entry) above, with P29A counted along it
T2 sequence (P08909 whole entry, looked up): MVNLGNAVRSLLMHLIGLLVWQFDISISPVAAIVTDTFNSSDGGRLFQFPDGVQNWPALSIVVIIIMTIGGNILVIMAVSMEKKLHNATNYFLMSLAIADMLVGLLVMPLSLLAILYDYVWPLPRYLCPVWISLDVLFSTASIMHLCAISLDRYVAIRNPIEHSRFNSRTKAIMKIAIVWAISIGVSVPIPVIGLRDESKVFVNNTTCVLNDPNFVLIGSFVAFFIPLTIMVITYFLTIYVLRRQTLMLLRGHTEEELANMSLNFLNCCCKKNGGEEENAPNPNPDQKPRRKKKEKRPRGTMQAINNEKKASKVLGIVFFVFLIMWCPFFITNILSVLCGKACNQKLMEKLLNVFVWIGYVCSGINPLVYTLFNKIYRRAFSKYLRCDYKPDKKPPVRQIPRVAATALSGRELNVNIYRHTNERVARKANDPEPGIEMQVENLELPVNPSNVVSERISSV
T2 sequence (P14842 whole entry, looked up): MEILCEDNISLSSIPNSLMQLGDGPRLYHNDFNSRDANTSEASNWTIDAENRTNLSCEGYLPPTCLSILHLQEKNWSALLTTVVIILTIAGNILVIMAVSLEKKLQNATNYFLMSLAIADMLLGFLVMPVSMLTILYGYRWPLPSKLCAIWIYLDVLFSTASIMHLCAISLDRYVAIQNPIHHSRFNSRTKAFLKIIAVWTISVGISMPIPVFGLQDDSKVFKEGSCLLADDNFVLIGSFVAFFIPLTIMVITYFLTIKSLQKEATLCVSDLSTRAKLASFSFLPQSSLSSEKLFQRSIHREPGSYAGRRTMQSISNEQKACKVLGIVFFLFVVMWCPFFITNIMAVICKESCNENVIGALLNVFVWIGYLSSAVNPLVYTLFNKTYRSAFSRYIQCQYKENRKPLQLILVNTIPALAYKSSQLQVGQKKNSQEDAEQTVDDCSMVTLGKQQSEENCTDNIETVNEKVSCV
T2 sequence (P30994 whole entry, looked up): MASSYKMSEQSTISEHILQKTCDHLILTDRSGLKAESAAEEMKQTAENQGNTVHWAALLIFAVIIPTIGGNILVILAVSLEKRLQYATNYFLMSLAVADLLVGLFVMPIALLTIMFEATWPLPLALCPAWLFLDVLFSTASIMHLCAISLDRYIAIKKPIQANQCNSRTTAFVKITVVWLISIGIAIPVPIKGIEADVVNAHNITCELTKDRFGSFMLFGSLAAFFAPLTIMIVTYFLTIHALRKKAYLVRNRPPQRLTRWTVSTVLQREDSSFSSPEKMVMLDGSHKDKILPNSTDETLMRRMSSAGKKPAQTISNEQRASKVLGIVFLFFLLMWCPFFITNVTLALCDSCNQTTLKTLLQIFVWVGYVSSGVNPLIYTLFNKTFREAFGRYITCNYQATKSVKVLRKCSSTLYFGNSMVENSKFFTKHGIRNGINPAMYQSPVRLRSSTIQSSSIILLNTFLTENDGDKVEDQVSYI

O=C1NCCN1CCCCN1CCC(c2cn(-c3ccc(F)cc3)c3ccc(Cl)cc23)CC1
ED50 (Rattus norvegicus [1]): > 2.2 µmol/kg | ED50 [2]: > 72 µmol/kg | IC50 (D(2) dopamine receptor): 78 nM | IC50 [3]: 59 nM

O=C1NCCN1CCCN1CCC(c2cn(-c3ccc(F)cc3)c3ccc(Cl)cc23)CC1
ED50 [4]: 11 µmol/kg | ED50 (Rattus norvegicus [1]): 1.8 µmol/kg | ED50 [2]: 57 µmol/kg | IC50 (D(2) dopamine receptor): 3.4 nM | IC50 [3]: 1 nM

O=C1NCCN1CCN1CCC(c2cn(-c3ccc(F)cc3)c3ccc(Br)cc23)CC1
ED50 [4]: > 41 µmol/kg | ED50 (Rattus norvegicus [1]): 0.032 µmol/kg | ED50 [2]: > 82 µmol/kg | IC50 (D(2) dopamine receptor): 3.8 nM | IC50 [3]: 1.3 nM

O=C1NCCN1CCN1CCN(c2cn(-c3ccc(F)cc3)c3ccc(Cl)cc23)CC1
ED50 [4]: 4.5 µmol/kg | ED50 (Rattus norvegicus [1]): 0.015 µmol/kg | IC50 [5]: 4.4 nM | ED50 [2]: 7.8 µmol/kg | IC50 (D(2) dopamine receptor): 21 nM

O=C1NCCN1CCCCCN1CCC(c2cn(-c3ccc(F)cc3)c3ccc(Cl)cc23)CC1
ED50 (Rattus norvegicus [1]): 1.5 µmol/kg | ED50 [2]: 14 µmol/kg | IC50 (D(2) dopamine receptor): 4.2 nM | IC50 [3]: 1.5 nM

Fc1ccc(-n2cc(C3=CCNCC3)c3cc(Cl)ccc32)cc1
ED50 [6]: 17 µmol/kg | ED50 [4]: > 61 µmol/kg | ED50 (Rattus norvegicus [1]): 1.5 µmol/kg

CN1CCN(C2=Nc3cc(Cl)ccc3Nc3ccccc32)CC1 [CLOZAPINE]
ED50 (Rattus norvegicus [7]): > 31 µmol/kg

O=C1NCCN1CCN1CCC(c2cn(-c3ccc(F)cc3)c3ccc(Cl)cc23)(c2cn(-c3ccc(F)cc3)c3ccc(Cl)cc23)CC1
IC50 [5]: 120 nM

O=C1NCCN1CCN1CC=C(c2cn(-c3ccc(F)cc3)c3ccc(Cl)cc23)CC1
ED50 [4]: 2.2 µmol/kg | ED50 (Rattus norvegicus [1]): 0.22 µmol/kg | ED50 [2]: 2 µmol/kg | ED50 (Rattus norvegicus [7]): 1.2 µmol/kg | IC50 (D(2) dopamine receptor): 2.3 nM

O=C1NCCN1CCN1CCC(c2c[nH]c3ccc(Cl)cc23)CC1
ED50 (Rattus norvegicus [1]): > 14 µmol/kg | ED50 [8]: 47 µmol/kg | IC50 (D(2) dopamine receptor): 810 nM | IC50 [3]: 25 nM

CN1CCN(c2cn(-c3ccc(F)cc3)c3ccc(Cl)cc23)CC1
ED50 [4]: 0.23 µmol/kg | ED50 (Rattus norvegicus [1]): 0.041 µmol/kg | IC50 [5]: 0.3 nM | ED50 [2]: 0.12 µmol/kg | IC50 (D(2) dopamine receptor): 1 nM

O=C1NCCN1CCN1CCC(c2cn(-c3ccc(F)cc3)c3ccc(F)cc23)CC1
ED50 [4]: > 78 µmol/kg | ED50 (Rattus norvegicus [1]): 0.052 µmol/kg | ED50 [2]: > 78 µmol/kg | ED50 (Rattus norvegicus [7]): 0.0097 µmol/kg | IC50 (D(2) dopamine receptor): 4.7 nM | IC50 [3]: 0.48 nM

O=C1NCCN1CCN1CCC(c2cn(-c3ccc(F)cc3)c3ccc(C(F)(F)F)cc23)CC1
ED50 [4]: 45 µmol/kg | ED50 (Rattus norvegicus [1]): 0.11 µmol/kg | ED50 [2]: 22 µmol/kg | IC50 (D(2) dopamine receptor): 1.9 nM | IC50 [3]: 1 nM

O=C1NCCN1CCN1CCC(c2cn(-c3ccc(F)cc3)c3ccccc23)CC1
ED50 [4]: > 98 µmol/kg | ED50 (Rattus norvegicus [1]): 0.036 µmol/kg | ED50 [2]: > 98 µmol/kg | ED50 (Rattus norvegicus [7]): 0.082 µmol/kg | IC50 (D(2) dopamine receptor): 18 nM | IC50 [3]: 0.082 nM

CN1CC=C(c2cn(-c3ccc(F)cc3)c3ccc([N+](=O)[O-])cc23)CC1
ED50 [4]: 0.025 µmol/kg | ED50 (Rattus norvegicus [1]): 0.0091 µmol/kg | IC50 [5]: 1.9 nM | ED50 [2]: 0.022 µmol/kg | IC50 (D(2) dopamine receptor): 0.76 nM

O=C1NCCN1CCN1CCC(c2cn(-c3ccc(F)cc3)c3ccc(Cl)cc23)CC1 [SERTINDOLE]
ED50 [4]: > 91 µmol/kg | ED50 (Rattus norvegicus [1]): 0.052 µmol/kg | ED50 [2]: > 180 µmol/kg | ED50 (Rattus norvegicus [7]): 0.03 µmol/kg

CN1CC=C(c2cn(-c3ccc(F)cc3)c3ccc(Cl)cc23)CC1
ED50 [4]: 0.085 µmol/kg | ED50 (Rattus norvegicus [1]): 0.058 µmol/kg | IC50 [5]: 0.53 nM | ED50 [2]: 0.085 µmol/kg | ED50 (Rattus norvegicus [7]): > 0.19 µmol/kg | IC50 (D(2) dopamine receptor): 1.1 nM

CC(C)N1CCN(CCN2CCC(c3cn(-c4ccc(F)cc4)c4ccc(Cl)cc34)CC2)C1=O
ED50 [4]: > 69 µmol/kg | ED50 (Rattus norvegicus [1]): 0.046 µmol/kg | ED50 [2]: > 69 µmol/kg | IC50 (D(2) dopamine receptor): 12 nM | IC50 [3]: 2.1 nM

CN1CC=C(c2cn(-c3ccc(F)cc3)c3ccc(F)cc23)CC1
ED50 [4]: 0.64 µmol/kg | ED50 (Rattus norvegicus [1]): 0.15 µmol/kg | IC50 [5]: 3 nM | ED50 [2]: 0.44 µmol/kg

CS(=O)(=O)c1ccc2c(c1)c(C1CCN(CCN3CCNC3=O)CC1)cn2-c1ccc(F)cc1
ED50 [4]: > 17 µmol/kg | ED50 (Rattus norvegicus [1]): 54 µmol/kg | ED50 [2]: > 67 µmol/kg | IC50 (D(2) dopamine receptor): 5.8 nM | IC50 [3]: 8 nM

OCCN1CCN([C@@H]2C[C@@H](c3ccc(F)cc3)c3ccc(C(F)(F)F)cc32)CC1 (racemic) [TEFLUDAZINE]
ED50 [4]: 0.12 µmol/kg | ED50 (Rattus norvegicus [1]): 0.029 µmol/kg | ED50 [2]: 0.2 µmol/kg | IC50 [3]: 2.8 nM

Fc1ccc(-n2cc(C3CCNCC3)c3cc(Cl)ccc32)cc1
ED50 [9]: > 90 µmol/kg | ED50 (Rattus norvegicus [1]): 1.5 µmol/kg | IC50 (D(2) dopamine receptor): 23 nM | IC50 [3]: 3.8 nM

O=C1NCCN1CCN1CC=C(c2cn(-c3ccc(F)cc3)c3ccc(C(F)(F)F)cc23)CC1
ED50 [4]: 0.49 µmol/kg | ED50 (Rattus norvegicus [1]): > 0.66 µmol/kg | ED50 [10]: 0.14 µmol/kg | ED50 [2]: 0.37 µmol/kg

OCCN1CCN(c2cn(-c3ccc(F)cc3)c3ccc(C(F)(F)F)cc23)CC1
ED50 [4]: 0.06 µmol/kg | ED50 (Rattus norvegicus [1]): 0.023 µmol/kg | IC50 [5]: 1.4 nM | ED50 [2]: 0.079 µmol/kg

CN1CC=C(c2cn(-c3ccc(F)cc3)c3ccccc23)CC1
ED50 [4]: 3.6 µmol/kg | ED50 (Rattus norvegicus [1]): 0.15 µmol/kg | ED50 [2]: 1.3 µmol/kg | IC50 (D(2) dopamine receptor): 1.6 nM

OCCN1CCC(c2cn(-c3ccc(F)cc3)c3ccc(Cl)cc23)CC1
ED50 [4]: 3.8 µmol/kg | ED50 (Rattus norvegicus [1]): 0.034 µmol/kg | ED50 [2]: 1.5 µmol/kg | IC50 (D(2) dopamine receptor): 4.5 nM | IC50 [3]: 2.7 nM

O=C1N(CCN2CCC(c3cn(-c4ccc(F)cc4)c4ccc(Cl)cc34)CC2)CCN1C1CCCC1
ED50 [9]: > 67 µmol/kg | ED50 [11]: > 2.1 µmol/kg

COc1ccc2c(c1)c(C1CCN(CCN3CCNC3=O)CC1)cn2-c1ccc(F)cc1
ED50 [4]: > 46 µmol/kg | ED50 (Rattus norvegicus [1]): 0.77 µmol/kg | ED50 [2]: > 76 µmol/kg | IC50 (D(2) dopamine receptor): 24 nM | IC50 [3]: 1 nM

Cc1ccc2c(c1)c(C1CCN(CCN3CCNC3=O)CC1)cn2-c1ccc(F)cc1
ED50 [4]: > 91 µmol/kg | ED50 (Rattus norvegicus [1]): 0.0083 µmol/kg | ED50 [2]: 98 µmol/kg | IC50 (D(2) dopamine receptor): 3.7 nM | IC50 [3]: 0.3 nM

Fc1ccc(-n2cc(C3=CCNCC3)c3cc(C(F)(F)F)ccc32)cc1
ED50 [4]: > 14 µmol/kg | ED50 (Rattus norvegicus [1]): > 0.86 µmol/kg | ED50 [2]: 2.1 µmol/kg

O=C1NCCN1CCCCCCN1CCC(c2cn(-c3ccc(F)cc3)c3ccc(Cl)cc23)CC1
ED50 [4]: 20 µmol/kg | ED50 (Rattus norvegicus [1]): > 2.2 µmol/kg | IC50 [5]: 2.5 nM | ED50 [2]: 2.7 µmol/kg | IC50 (D(2) dopamine receptor): 2.2 nM

CN1CCN(CCN2CCC(c3cn(-c4ccc(F)cc4)c4ccc(Cl)cc34)CC2)C1=O
ED50 [4]: 31 µmol/kg | ED50 (Rattus norvegicus [1]): 0.021 µmol/kg | ED50 [2]: 2.6 µmol/kg | IC50 (D(2) dopamine receptor): 6.5 nM | IC50 [3]: 0.24 nM

N#Cc1ccc2c(c1)c(C1CCN(CCN3CCNC3=O)CC1)cn2-c1ccc(F)cc1
ED50 [2]: 34 µmol/kg | IC50 (D(2) dopamine receptor): 2.2 nM | IC50 [3]: 1.3 nM

O=C1N(CCN2CCC(c3cn(-c4ccc(F)cc4)c4ccc(Cl)cc34)CC2)CCN1c1ccccc1
ED50 [9]: > 77 µmol/kg | ED50 (Rattus norvegicus [1]): > 0.15 µmol/kg | IC50 (D(2) dopamine receptor): 92 nM | IC50 [3]: 4.4 nM

Cc1nc2n(c(=O)c1CCN1CCC(c3noc4cc(F)ccc34)CC1)CCCC2 [RISPERIDONE]
ED50 (Rattus norvegicus [7]): > 3 µmol/kg

N#Cc1ccc2c(c1)c(C1=CCN(CCN3CCNC3=O)CC1)cn2-c1ccc(F)cc1
ED50 [8]: 0.37 µmol/kg | IC50 (D(2) dopamine receptor): 2.1 nM | IC50 [3]: 3.2 nM
